Non-standard residues stand in square brackets, D forms with d. Residues, ends and D or L forms follow the SMILES beside them. Nspe = C[C@H](NCC(=O)O)c1ccccc1; Nlys = NCCCCNCC(=O)O
Experiments:
[1] = Metabolic stability in human liver S9 fraction, HPLC; type: in vitro ADME; details: 37° C., after 24 hours
Protocol: In order to identify metabolic stability of the peptoids synthesized in Preparation Example 1, such peptoids were subjected to enzymatic reaction using S9 fraction which is a mixture of human liver tissue-extracted metabolic enzymes. Thereafter, for the reaction products, metabolites were quantitated using HPLC.
Specifically, Peptoid NOS. 1 and 4, and Pexiganan as a peptide control (40 μL each, 100 μM) were treated with […], 3.3 mM MgCl2, and 1.3 mM NADPH buffer (306 μL, pH=7.4), to prepare respective samples. The respective samples were treated with S9 fraction (2 μL, 0.1 mg/mL) and then incubated at a temperature of 37° C. When 0, 1, 4, and 24 hours had elapsed after treatment with the S9 fraction, 40 μL of each sample was taken out, and acetonitrile containing the same amount of 0.1% trifluoroacetic acid was used to stop activity of enzymes contained in the S9 fraction. Thereafter, proteins precipitated with acetonitrile were centrifuged at a condition of 1,000×g for 10 minutes at a temperature of 4° C. Then, supernatant was analyzed by HPLC to identify an amount of the remaining peptoid which had not been degraded by the enzymes in the S9 fraction.

[2] = in vitro; type: cell-based; details: concentration indicating 50% survival, 24 h, MTS; read-out: LC50
In short: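 Human lung […] cells, 1.3×10^4 per well in DMEM with 10% FBS, incubated overnight, then treated 24 h with 2-fold serially diluted peptoid at 37° C, 5% CO2. MTS added for 4 hours, absorbance 490 nm; % survival relative to untreated control cells.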

For C[C@@H](c1ccccc1)N(CC(N)=O)C(=O)CN(C(=O)CN(CCCCN)C(=O)CN(C(=O)CN(C(=O)CN(CCCCN)C(=O)CN(C(=O)CN(C(=O)CN(CCCCN)C(=O)CN(C(=O)CN(C(=O)CNCCCCN)[C@@H](C)c1ccccc1)[C@@H](C)c1ccccc1)[C@@H](C)c1ccccc1)[C@@H](C)c1ccccc1)[C@@H](C)c1ccccc1)[C@@H](C)c1ccccc1)[C@@H](C)c1ccccc1 [compound 1] (H-[Nlys][Nspe][Nspe][Nlys][Nspe][Nspe][Nlys][Nspe][Nspe][Nlys][Nspe][Nspe]-NH2), which “remaining amount after S9 fraction treatment” value ([1]; human liver S9 fraction, 1440 min) is on record?
The value was “about 64%”.

And the remaining at 24 h, 11.5 μM ([1]; human, s9, pH 7.4, human liver S9 fraction, read-out: remaining amount after S9 fraction treatment)?
The remaining at 24 h, 11.5 μM was no less than 60%.

What about the CC50 at 24 h [2] of the same molecule?
The CC50 at 24 h was 8 µM.

— patent publication US10815275B2, “Antimicrobial peptoids with improved selectivity and use thereof” (priority 2018, dated 2020)
